What all share (assay type): cell-based
For data set [1], the system named is mouse preadipocytes. In words: Identification of megakaryocyte/platelet production inducing substance (CD41 flow cytometry). To be noted: reagent added alone to basic medium, Day 7. As to the method:
In order to identify an important factor(s) for inducing production of megakaryocytes/platelets from preadipocytes, mediums were prepared by separately adding individual reagents contained in a differentiation-inducing medium (MKLI medium) for megakaryocytes/platelets, to a basic medium (IMDM medium containing 2 mM L-glutamine, a 100 U/mL penicillin-streptomycin solution, and nucleotides (ATP, UTP, GTP, and CTP, 20 μM for each)). More specifically, five types of mediums were prepared by adding 0.5% bovine serum albumin, 10 μg/mL insulin, 4 μg/mL LDL cholesterol, 200 μg/mL iron-saturated transferrin (iron-bound transferrin) and 50 μM 2-β-mercaptoethanol, respectively, to the basic mediums (FIG. 5). Mouse preadipocytes maintenance-cultured in accordance with the method of Example 1 were cultured in the above five types of mediums and in the basic medium, i.e., in total 6 types of medium (FIG. 5) for 7 days.
The mouse preadipocytes on Day 7 after culture in each of the mediums were directly labeled with a FITC-labeled anti-CD41 antibody and analyzed by flow cytometry.

Data set [2] deals with preadipocytes. In words: Effect of iron chelator and apo-transferrin on ratio of CD41-positive cells. Particulars: Day 4. The protocol:
To investigate effect of an iron ion on induction of preadipocytes into megakaryocytes/platelets, analysis using the preadipocytes was made. Specifically, a medium (basic medium+iron-bound transferrin+Desferal (deferoxamine mesylate)) was prepared by adding an iron chelator, Desferal (deferoxamine mesylate, manufactured by Novartis Pharma K. K.) to a basic medium containing 200 μg/mL iron-bound transferrin, or a medium (basic medium+apo-transferrin) was prepared by adding a non-iron-bound transferrin, apo-transferrin (manufactured by Athens Research and Technology) to a basic medium alone. Cells were cultured in these mediums and the ratio (%) of CD41 (specific marker of megakaryocytes and platelets)—positive cells in the cells on Day 4 after the culture was determined. The results of Desferal (deferoxamine mesylate) addition are shown in Table 3; whereas the results of apo-transferrin addition are shown in Table 4.

For data set [3], the system named is human preadipocytes. In words: TPO production at different iron-bound transferrin concentrations. To be noted: for TPO: Day 4.
The subject of data set [4] is human preadipocytes. In words: Ratio of CD41-positive cells at different iron-bound transferrin concentrations. To be noted: Day 4. As to the method:
Human preadipocytes maintenance-cultured in accordance with the method of Example 1 were prepared and cultured in mediums prepared by adding iron-bound transferrin samples different in concentration to the basic medium described in Example 3. The ratio (%) of CD41 (specific marker of megakaryocytes and platelets)-positive cells in the cells on Day 4 after initiation of the culture was determined.

The test system of data set [5] is mouse preadipocytes. In words: CD41-positive ratio of sorted adipose tissue-derived cell fractions cultured with iron-bound transferrin. Particulars: CD31 negative, 200 μg/mL, Day 5. As to the method: A subcutaneous adipose tissue was isolated from a mouse. To this, collagenase was added. The mixture was incubated at 37° C. for one hour and centrifuged to obtain a cell layer as a lower layer. Thereafter, these cells were labeled with a fluorescence-labeled anti-CD45 antibody (manufactured by BD Bioscience), a fluorescence-labeled anti-Ter119 antibody (manufactured by BD Bioscience) and 7AAD (manufactured by BD Bioscience), and fluorescence was measured by flow cytometry. Of the cells shown in FIG. 7, upper right panel, cells of CD45 negative, Ter119 negative and 7-AAD negative (cells under the line at the center of the upper right panel of FIG. 7) were separately taken. CD45 is known as a marker of hematopoietic cells (leucocytes, lymphocytes, eosinophils, monocytes, basophils, and neutrophils) excluding erythrocytes and platelets. Ter119 is known as a marker of mature erythrocytes and erythroid progenitor cells. 7-AAD (7-amino-actinomycin D) is known as a marker of dead cells.
Subsequently, CD45 negative, Ter119 negative and 7-AAD negative cells separately taken were labeled with a fluorescence-labeled anti-CD31 antibody (manufactured by BD Bioscience) and fluorescent was measured by flow cytometry. Of the cells shown in the lower left panel of FIG. 7, CD31 negative cells (cells under the line of the center of the lower left panel of FIG. 7) were separately taken. […]
Subsequently, the cells (CD45 negative, Ter119 negative, 7-AAD negative and CD31 negative) previously separately taken were labeled with a fluorescence-labeled anti-c-MPL antibody (manufactured by BD Bioscience) and a fluorescence-labeled anti-CD71 antibody (manufactured by BD Bioscience), and fluorescence was measured by flow cytometry. […]
The cells shown in individual portions of the left panel of FIG. 8 were separately cultured in a medium prepared by adding 200 μg/mL iron-bound transferrin to the basic medium described in Example 3. The ratio (%) of CD41 (specific marker of megakaryocytes/platelets)-positive cells in the cells on Day 5 after initiation of culture was determined. […]

The test system of data set [6] is mouse hematopoietic stem cells. Put plainly: Differentiation of hematopoietic stem cells into megakaryocytes/platelets. An excerpt: Activity of TPO secreted during the process of producing megakaryocytes/platelets from preadipocytes was investigated based on the presence or absence of differentiation-inducing property of mouse hematopoietic stem cells into megakaryocytes/platelets when TPO was used. Whether platelets are produced or not was checked based on the shape analyzed by an optical microscope and flow-cytometric expression analysis of platelet specific marker CD41.

In data set [7] the test system is preadipocytes. Put plainly: CD71 knock-down by siRNA: TPO in culture supernatant by ELISA. As to the method:
A medium was prepared by removing bovine serum albumin, insulin, LDL cholesterol and 2-β-mercaptoethanol from MKLI medium. The medium is the same as a medium (“basic medium+transferrin”), which is prepared by adding 200 μg/mL iron-bound transferrin to a medium (of MKLI medium) corresponding to a basic medium (a medium prepared by adding, to Iscove's Modified Dulbecco's Medium, IMDM), 2 mM L-glutamine, a 100 U/mL penicillin-streptomycin solution, and nucleotides (ATP, UTP, GTP, and CTP, 20 μM for each) and corresponding to a medium prepared by adding 200 μg/mL iron-bound transferrin to “the particularly preferable basic medium in the present invention” described in the detailed description of the present application. To preadipocytes, a gene of siRNA of transferrin receptor CD71 (siRNA-CD71) (the sequence of a sense strand is represented by SEQ. ID No. 1, whereas the sequence of the antisense strand is represented by SEQ. ID No. 2) or a scrambled oligo (negative control) (the sequence of a sense strand is represented by SEQ. ID No. 3, whereas the sequence of the antisense strand is represented by SEQ. ID No. 4) was introduced. The resultant preadipocytes were cultured in the aforementioned “basic medium+transferrin”. TPO in each of the culture supernatants was measured by ELISA quantitation using the TPO Quantikine ELISA kit (manufactured by R&D Systems). In Table 6, “unmeasurable” means that measurement values are equivalent to the value of the background. As is apparent from Table 6, TPO was secreted from preadipocytes using the scrambled oligo, whereas TPO was not secreted from preadipocytes in which transferrin receptor CD71 was knocked down by siRNA.
Background: In an ELISA, binding on a coated surface is turned into a signal by an enzyme label.

Data set [8] relates to human preadipocytes. Put plainly: CD71 knock-down by siRNA: CD41-positive cells by flow cytometry. An excerpt:
(§1) In consideration of the results, whether a transferrin receptor CD71 knock-down preadipocytes have differentiation potency to megakaryocytes and platelets or not was checked. To human preadipocytes, a gene of siRNA of CD71 (siRNA-CD71) (the sequence of a sense strand is represented by SEQ. ID No. 1, whereas the sequence of the antisense strand is represented by SEQ. ID No. 2) or a scrambled oligo (negative control) (the sequence of a sense strand is represented by SEQ. ID No. 3, whereas the sequence of the antisense strand is represented by SEQ. ID No. 4) was introduced. Forty eight hours later, the human preadipocytes were cultured in a medium prepared by adding transferrin alone to the basic medium, for four days.
(§2) Human preadipocytes on Day 4 after culture were directly labeled with a FITC-labeled anti-CD41 antibody and analyzed by flow cytometry. As a result, production of megakaryocytes and platelets was not observed in CD71 knock-down human preadipocytes (Table 1).

Data set [9] has as its system transferrin receptor CD71. Put plainly: CD71 knock-down by siRNA: CD71 % (Example 11).
Data set [10] relates to transferrin receptor CD71. Put plainly: CD71 knock-down by siRNA: CD71 % in human preadipocytes.
Excerpt: as §1, §2

Setting [11] is: iron-bound transferrin 25 μg/mL in basic medium.
[12] abbreviates: iron-bound transferrin 50 μg/mL in basic medium.
[13] abbreviates: iron-bound transferrin 100 μg/mL in basic medium.
[14] abbreviates: iron-bound transferrin 200 μg/mL in basic medium.
[15] abbreviates: iron-bound transferrin 400 μg/mL in basic medium.
The mark [16] stands for this setting: Day 0 (48 hours after siRNA introduction).
[17] abbreviates: Day 2, basic medium+transferrin.
Where [18] appears, read: Day 4, basic medium+transferrin.
[19] abbreviates: Day 4 of culture in basic medium + transferrin.

Where a name gives a salt, the structure may show the parent alone.

Take `OCCS` [2-β-mercaptoethanol]: the “cells expressing CD41” value with mouse preadipocytes [1] is “not observed”.

`CC(=O)N(O)CCCCCNC(=O)CCC(=O)N(O)CCCCCNC(=O)CCC(=O)N(O)CCCCCN` [Desferal, deferoxamine mesylate]: the “CD41 (%)” value in the data set with preadipocytes [2] (Desferal 0.005 mg/mL in basic medium + 200 μg/mL iron-bound transferrin) was 36 ± 11.3%; in the data set with preadipocytes [2] (Desferal 0.05 mg/mL in basic medium + 200 μg/mL iron-bound transferrin), 35.5 ± 10.6%; with preadipocytes [2] (Desferal 0.5 mg/mL in basic medium + 200 μg/mL iron-bound transferrin), 14 ± 5.7%; in the data set with preadipocytes [2] (Desferal 5 mg/mL in basic medium + 200 μg/mL iron-bound transferrin), 10.5 ± 6.4%; with preadipocytes [2] (Desferal 50 mg/mL in basic medium + 200 μg/mL iron-bound transferrin), 5 ± 2.8%.

As to “Apo-transferrin: non-iron-bound transferrin, manufactured by Athens Research and Technology”, the results for the “CD41 (%)” value in the data set on preadipocytes [2] (apo-transferrin 200 μg/mL added to basic medium alone) and in the data set with preadipocytes [2] (apo-transferrin 400 μg/mL added to basic medium alone) were 16.5 ± 4.95% and 14.5 ± 3.54%, respectively.

For “Iron-bound transferrin: holo-transferrin formed by binding an apo-transferrin to an iron ion; manufactured by Sigma”, in the data set with mouse preadipocytes [1], the “cells expressing CD41” value was “observed”. The TPO result in the data set with human preadipocytes [3] (setting [11]) is on record as “Below”; in the data set on human preadipocytes [3] (setting [12]) it was 7.5 ± 1.1 pg/mL; with human preadipocytes [3] (setting [13]) it was 10.8 ± 3.5 pg/mL; with human preadipocytes [3] (setting [14]), 10 ± 2.4 pg/mL; in the data set with human preadipocytes [3] (setting [15]), “Below”. In the data set with human preadipocytes [3] (iron-bound transferrin 50 μg/mL), the “decrease of concentration of TPO produced compared to the case of 200 μg/mL” value is “about 25%”. Besides, the “CD41 (%)” value is 15.5 ± 9.2% in the data set on human preadipocytes [4] (setting [11]); 18 ± 9.9% in the data set with human preadipocytes [4] (setting [12]); 17.5 ± 9.2% in the data set on human preadipocytes [4] (setting [13]); 19 ± 8.5% in the data set on human preadipocytes [4] (setting [14]); 11 ± 7.1% in the data set with human preadipocytes [4] (setting [15]). Further, the “ratio (%) of CD41-positive cells” value was 10.8% in the data set with mouse preadipocytes [5] (c-MPL negative, CD71 negative preadipocytes); 26.9% with mouse preadipocytes [5] (c-MPL negative, CD71 positive preadipocytes); 62.3% in the data set on mouse preadipocytes [5] (c-MPL positive, CD71 positive preadipocytes).

Consider “TPO: thrombopoietin purchased from Stem Cell Technologies, 50 ng/mL in MKLI medium”, for which the platelet production entry in data set [6] (Day 2 and Day 8 after initiation of culture) is recorded as “slightly produced”. In addition, in [6] (Day 8, 1.26% before culture, supernatant TPO 43.1±4.9 pg/mL, purchased TPO 50 ng/mL in MKLI medium), the “ratio of CD41 positive cells” value is given as 5.56%.

In the case of “insulin: insulin, 10 μg/mL added to basic medium”, the “cells expressing CD41” value in the data set on mouse preadipocytes [1] is listed as “not observed”.

For the molecule “siRNA-CD71: siRNA of transferrin receptor CD71; sense strand SEQ. ID No. 1, antisense strand SEQ. ID No. 2 (sense GAACUUGAAACUGCGUAAATT; antisense UUUACGCAGUUUCAAGUUCTT; chemistry not given here) [siRNA of transferrin receptor CD71; ID No. 2]”, the TPO entry in the data set on preadipocytes [7] (setting [16]), in the data set on preadipocytes [7] (setting [17]) and in the data set with preadipocytes [7] (setting [18]) was “Unmeasurable” each time. The CD41 (%) in the data set on human preadipocytes [8] (setting [16]) and in the data set on human preadipocytes [8] (setting [19]) was 0.1> % throughout. Moreover, the CD71 % in [9] (setting [16]) stood at 5.7 ± 0.2%; in [9] (setting [17]), 13.7 ± 0.6%; in data set [9] (setting [18]), 7.5 ± 0.7%; in data set [10] (setting [16]), 5.7 ± 0.2%; in data set [10] (setting [19]), 7.5 ± 0.7%.

Source of the values: patent US10113147B2, “Method for producing megakaryocytes, platelets and/or thrombopoietin using mesenchymal cells” (AdipoSeeds, Inc., priority 2013, dated 2018).
